Assay results as given in patent EP3928779A1 (Chugai Seiyaku Kabushiki Kaisha, priority 2014, dated 2016).

System: rat small-intestinal brush border membrane vesicles
Experiment: Inhibitory effect on 33PO4 uptake into rat small-intestinal brush border membrane vesicles (rapid filtration method)
Format: biochemical
Settings: 33PO4 uptake into rat small-intestinal BBMVs; test compound 1 µM; reacted for 60 seconds
Outline: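 Uptake of ^33PO4 was measured by rapid filtration and liquid scintillation counting of filter-retained vesicles, after quenching with ice-cold 110 mM NaCl/1 mM KH2PO4/10 mM HEPES pH 7.5. Vesicles were brush border membranes from the upper small intestine of female Wistar rats aged 4–5 weeks.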

CN1N(Cc2ccc(OCCNCCS(=O)(=O)O)c(F)c2F)C(=O)C(C(=O)Nc2ccc(C(F)(F)F)cc2-c2cc(C(F)(F)F)ncn2)=C(O)C12CCCC2 [Example 435, 2-[2-[2,3-Difluoro-4-[[10-hydroxy-6-methyl-8-oxo-9-[[4-(trifluoromethyl)-2-[6-(trifluoromethyl)pyrimidin-4-yl]phenyl]carbamoyl]-6,7-diazaspiro[4.5]dec-9-en-7-yl]methyl]phenoxy]ethylamino]ethanesulfonic acid]
Rate of uptake inhibition (%) (1 µM): 11%

COCCN(C)CCOc1c(I)cc(CN2C(=O)C(C(=O)Nc3ccc(C(F)(F)F)cc3-c3cc(C(F)(F)F)ncn3)=C(O)C3(CCCC3)N2C)c(F)c1F [Example 437, 7-[[2,3-Difluoro-5-iodo-4-[2-[2-methoxyethyl(methyl)amino]ethoxy]phenyl]methyl]-10-hydroxy-6-methyl-8-oxo-N-[4-(trifluoromethyl)-2-[6-(trifluoromethyl)pyrimidin-4-yl]phenyl]-6,7-diazaspiro[4.5]dec-9-ene-9-carboxamide]
Rate of uptake inhibition (%) (1 µM): 45%

COCCCN(C)C(=O)c1cc(CN2C(=O)C(C(=O)Nc3ccc(C(F)(F)F)cc3-c3cc(C(F)(F)F)ncn3)=C(O)C3(CCCC3)N2C)c(F)c(F)c1OCCN(C)CCOC [Example 438, 7-[[2,3-Difluoro-4-[2-[2-methoxyethyl(methyl)amino]ethoxy]-5-[3-methoxypropyl(methyl)carbamoyl]phenyl]methyl]-10-hydroxy-6-methyl-8-oxo-N-[4-(trifluoromethyl)-2-[6-(trifluoromethyl)pyrimidin-4-yl]phenyl]-6,7-diazaspiro[4.5]dec-9-ene-9-carboxamide]
Rate of uptake inhibition (%) (1 µM): 33%

COCCOc1cc(NC(=O)C2=C(O)C3(CCCC3)N(C)N(Cc3ccc(OCCN(C)CCOC)c(F)c3F)C2=O)c(-c2ncnc(C(F)(F)F)c2C)cc1C(F)(F)F [Example 439, 7-[[2,3-Difluoro-4-[2-[2-methoxyethyl(methyl)amino]ethoxy]phenyl]methyl]-10-hydroxy-N-[5-(2-methoxyethoxy)-2-[5-methyl-6-(trifluoromethyl)pyrimidin-4-yl]-4-(trifluoromethyl)phenyl]-6-methyl-8-oxo-6,7-diazaspiro[4.5]dec-9-ene-9-carboxamide]
Rate of uptake inhibition (%) (1 µM): 35%

COCCN(C)CCOc1c(-c2cccnc2)cc(CN2C(=O)C(C(=O)Nc3ccc(C(F)(F)F)cc3-c3cc(C(F)(F)F)ncn3)=C(O)C3(CCCC3)N2C)c(F)c1F [Example 440, 9-[[2,3-Difluoro-4-[2-[2-methoxyethyl(methyl)amino]ethoxy]-5-(3-pyridinyl)phenyl]methyl]-6-hydroxy-10-methyl-8-oxo-N-[4-(trifluoromethyl)-2-[6-(trifluoromethyl)pyrimidin-4-yl]phenyl]-9,10-diazaspiro[4.5]dec-6-ene-7-carboxamide]
Rate of uptake inhibition (%) (1 µM): 28%

CN(C[C@H](O)[C@@H](O)[C@H](O)[C@H](O)CO)C(=O)COCCOCCOCCOCCOc1ccc(CN2C(=O)C(C(=O)Nc3ccc(C(F)(F)F)cc3-c3cc(C(F)(F)F)ncn3)=C(O)C3(CCCC3)N2C)c(F)c1F [Example 441, 7-[[2,3-Difluoro-4-[2-[2-[2-[2-[2-[methyl-[(2S,3R,4R,5R)-2,3,4,5,6-pentahydroxyhexyl]amino]-2-oxoethoxy]ethoxy]ethoxy]ethoxy]ethoxy]phenyl]methyl]-10-hydroxy-6-methyl-8-oxo-N-[4-(trifluoromethyl)-2-[6-(trifluoromethyl)pyrimidin-4-yl]phenyl]-6,7-diazaspiro[4.5]dec-9-ene-9-carboxamide]
Rate of uptake inhibition (%) (1 µM): 22%

COCCN(C)CCN(C)c1ccc(CN2C(=O)C(C(=O)Nc3ccc(C(F)(F)F)cc3-c3cc(C(F)(F)F)ncn3)=C(O)C3(CCCC3)N2C)c(F)c1F [Example 442]
Rate of uptake inhibition (%) (1 µM): 24%

CCN(CCN(C)CCOC)c1ccc(CN2C(=O)C(C(=O)Nc3ccc(C(F)(F)F)cc3-c3cc(C(F)(F)F)ncn3)=C(O)C3(CCCC3)N2C)c(F)c1F [Example 443]
Rate of uptake inhibition (%) (1 µM): 28%

CCCN(CCN(C)CCOC)c1ccc(CN2C(=O)C(C(=O)Nc3ccc(C(F)(F)F)cc3-c3cc(C(F)(F)F)ncn3)=C(O)C3(CCCC3)N2C)c(F)c1F [Example 444]
Rate of uptake inhibition (%) (1 µM): 24%

COCCN(C)CCN(c1ccc(CN2C(=O)C(C(=O)Nc3ccc(C(F)(F)F)cc3-c3cc(C(F)(F)F)ncn3)=C(O)C3(CCCC3)N2C)c(F)c1F)C(C)C [Example 445]
Rate of uptake inhibition (%) (1 µM): 29%

CN1N(Cc2ccc(NCCCN3CCOCC3)c(F)c2F)C(=O)C(C(=O)Nc2ccc(C(F)(F)F)cc2-c2cc(C(F)(F)F)ncn2)=C(O)C12CCCC2 [Example 446]
Rate of uptake inhibition (%) (1 µM): 31%

CN1N(Cc2ccc(NCCN3CCOCC3)c(F)c2F)C(=O)C(C(=O)Nc2ccc(C(F)(F)F)cc2-c2cc(C(F)(F)F)ncn2)=C(O)C12CCCC2 [Example 447]
Rate of uptake inhibition (%) (1 µM): 50%

(4aR)-1-[(2,3-Difluorophenyl)methyl]-4-hydroxy-4a-methyl-N-[5-methyl-2-(trifluoromethyl)furan-3-yl]-2-oxo-6,7-dihydro-5H-pyrrolo[1,2-b]pyridazine-3-carboxamide [Example 7]
Rate of uptake inhibition (%) (1 µM): 69%

(4aR)-1-[(2,3-Difluorophenyl)methyl]-4-hydroxy-N-[5-methyl-2-(trifluoromethyl)furan-3-yl]-2-oxo-4a-propyl-6,7-dihydro-5H-pyrrolo[1,2-b]pyridazine-3-carboxamide [Example 12]
Rate of uptake inhibition (%) (1 µM): 27%

(4aR)-1-[(2,3-Difluorophenyl)methyl]-4a-ethyl-4-hydroxy- N-[5-methyl-2-(trifluoromethyl)furan-3-yl]-2-oxo-6,7-dihydro-5H-pyrrolo[1,2-b]pyridazine-3-carboxamide [Example 10]
Rate of uptake inhibition (%) (1 µM): 37%

(4aR)-1-[(3-Fluorophenyl)methyl]-4-hydroxy-4a-methyl-N-[5-methyl-2-(trifluoromethyl)furan-3-yl]-2-oxo-6,7-dihydro-5H-pyrrolo[1,2-b]pyridazine-3-carboxamide [Example 6]
Rate of uptake inhibition (%) (1 µM): 48%

(4aR)-1-[(3-Fluorophenyl)methyl]-4-hydroxy-N-[5-methyl-2-(trifluoromethyl)furan-3-yl]-2-oxo-4a-propyl-6,7-dihydro-5H-pyrrolo[1,2-b]pyridazine-3-carboxamide [Example 11]
Rate of uptake inhibition (%) (1 µM): 22%

(4aR)-4a-Ethyl-1-[(3-fluorophenyl)methyl]-4-hydroxy-N-[5-methyl-2-(trifluoromethyl)furan-3-yl]-2-oxo-6,7-dihydro-5H-pyrrolo[1,2-b]pyridazine-3-carboxamide [Example 9]
Rate of uptake inhibition (%) (1 µM): 63%

(4aR)-N-[2-(6-Cyano-5-methoxypyridin-1-yl)-4-(trifluoromethyl)phenyl]-1-[(2,3-difluorophenyl)methyl]-4-hydroxy-4a-methyl-2-oxo-6,7-dihydro-5H-pyrrolo[1,2-b] pyridazine-3-carboxamide [Example 114]
Rate of uptake inhibition (%) (1 µM): 86%

(4aS)-1-[(2,3-Difluorophenyl)methyl]-6,6-difluoro-4-hydroxy-N-[5-methyl-2-(trifluoromethyl)furan-3-yl]-2-oxo-5,7-dihydro-4aH-pyrrolo[1,2-b]pyridazine-3-carboxamide [Example 5]
Rate of uptake inhibition (%) (1 µM): 54%
